We go through two compounds from patent publication US10988465B2, “CXCR4 inhibitors and uses thereof” (X4 Pharmaceuticals, Inc., priority 2016, dated 2021).

A short description of data set [1]: Mouse brain uptake assay (MBUA), 3 mg/kg IV, 0-1 h, 3 time points. The class given is in vivo, male CD1 mice. To be noted: for clearance / half-life: CD1, plasma, 3 time points; for half-life: read-out: t½ (converted). The protocol: Example 38: Pharmacokinetics and Brain Penetration Experiment to Determine Brain and Plasma Concentrations of Compounds after IV Administration to Male CD1 Mice
The study design (9 animals) consisted of administrating the drug (IV: 3 mg/kg (5 mL/kg) via tail vein injection) and collecting samples at terminal bleeding for plasma and brain at 0.083, 0.5 and 1 h. The IV dosing solution was prepared in 50 mM citrate buffer (pH 4.0) at 0.6 mg/mL. The blood collection was performed as follows: the animal was restrained manually and approximately 150 μL blood/time point was collected into a dipotassium EDTA tube via retro orbital puncture under anesthesia with isoflurane. The blood sample was put on ice and centrifuged to obtain a plasma sample (2000 g, 5 min under 4° C.) within 15 minutes. The brain collection was performed as follows: a mid-line incision was made in the animal's scalp and the skin was retracted. Using small bone cutters and rongeurs, the skull overlying the brain was removed. The brain was removed using a spatula and the brain rinsed with cold saline. The brain was placed in screw-top tubes, and the tubes were stored at −70° C. until analysis.
An aliquot of 30 μL sample was added to 150 μL MeCN containing 50 ng/mL IS (Dexamethasone). The mixture was vortexed for 5 min and centrifuged at 14,000 rpm for 5 min. An aliquot of 5 μL supernatant was injected for LC-MS/MS analysis.
An aliquot of 30 μL brain homogenate (brain:PBS=1:3, w/v) sample was added to 150 μL IS in MeCN (Dexamethasone, 50 ng/mL). The mixture was vortexed for 5 min and centrifuged at 14,000 rpm for 5 min. An aliquot of 5 μL supernatant was injected for LC-MS/MS analysis.
The sample analysis was performed on LCMS/MS-003 (API4000, triple quadruple) under the following conditions: positive ion, ESI, MRM detection using dexamethasone as internal standard. HPLC conditions: mobile phase A: H2O (0.025% formic acid (FA) with 1 mM NH4OAc); mobile phase B: MeOH (0.025% FA with 1 mM NH4OAc) on Waters X-Bridge C18 (2.1×50 mm, 2.5 μm) column at 60° C.

Another data set is described as follows: in vitro. To be noted: human, Caco-2, pH 7.4. In outline:
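Caco-2 monolayers, checked by TEER with Lucifer yellow as marker, were dosed with 10 μM compound in HBSS pH 7.4 in A-to-B and B-to-A directions. Incubation was 90 min at 37° C, in duplicate. Samples were quantified by LC-MS/MS and Papp calculated.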

Data set [2] is described as follows: Rat brain uptake assay: pharmacokinetics and brain penetration after IV-PO administration. The class given is in vivo, male SD rats.
In data set [3] the target is T1, CXCR-4 transfected U87 cell line (U87.CXCR4) (Homo sapiens, UniProt P61073).
T1 construct: expressed in transfected cells; host or cells: U87 (U87.CXCR4)
Put plainly: Intracellular CXCL-12-induced calcium mobilization assay (FLIPR). It counts as cell-based. To be noted: U87.CXCR4 cells; CXCL-12 25-50 ng/mL; compound added 15 min before; read-out: IC50 CXCL-12 Ca^2+ flux U87.CXCR4+. In a few lines:
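U87 cells stably expressing human CXCR4, loaded with Fluo-2 AM (4 μM final) for 45 min at 37 °C in HBSS/20 mM HEPES/0.2% BSA, pH 7.4. Calcium flux triggered by CXCL-12 (25-50 ng/mL) was followed by FLIPR fluorescence over time at 37 °C.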

[4] abbreviates: male, CD1, brain, mouse, 3 mg/kg IV, 0-1 h, read-out: AUClast (b).
Where [5] appears, read: male, CD1, plasma, mouse, 3 mg/kg IV, 0-1 h, read-out: AUClast (P).
Setting [6] is: brain (brain proteins), read-out: Fu (b) % (fraction of drug unbound to brain proteins).
Where [7] appears, read: plasma, read-out: Fu (p) % (fraction of drug unbound to plasma proteins).

Like-named read-outs stand apart in the source and are kept apart here.

T1 sequence (P61073 whole entry): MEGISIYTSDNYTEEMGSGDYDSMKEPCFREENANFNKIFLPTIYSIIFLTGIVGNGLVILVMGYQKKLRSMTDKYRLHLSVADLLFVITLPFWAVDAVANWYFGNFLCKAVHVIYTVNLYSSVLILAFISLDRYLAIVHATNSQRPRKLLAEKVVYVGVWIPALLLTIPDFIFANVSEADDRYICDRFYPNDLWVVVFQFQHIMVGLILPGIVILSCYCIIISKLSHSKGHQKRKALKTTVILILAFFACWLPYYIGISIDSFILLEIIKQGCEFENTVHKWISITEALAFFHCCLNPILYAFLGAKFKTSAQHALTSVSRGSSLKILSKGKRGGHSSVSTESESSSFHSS

With `Cc1cccnc1[C@@H]1CCC[C@H](c2nc3cccc(N4CCN(C)CC4)c3[nH]2)N1C` (racemic) [I-3, 2-((2R,6S)-1-methyl-6-(3-methylpyridin-2-yl)piperidin-2-yl)-7-(4-methylpiperazin-1-yl)-1H-benzo[d]imidazole], in data set [1] (male, mouse, 3 mg/kg IV, 0-1 h), the clearance (in general, the volume of plasma or blood freed of the substance per unit of time) is 115 mL/min/kg and the half-life is 18 min. In addition, the AUC(0-t) in data set [1] (setting [4]) is 180 ng·h/mL. Also, the AUC(0-t) in data set [1] (setting [5]) was 268 ng·h/mL. In the data set “in vitro”, the apical-to-basolateral permeability (Papp A→B) (usually how fast a substance crosses the layer from the apical side) at 90 min, 10 μM was 0.1 to 10 ×10⁻⁶ cm/s and the Papp B→A (commonly the apparent permeability from the basolateral to the apical side of a cell layer) at 90 min, 10 μM was in the range of 10 to 30 ×10⁻⁶ cm/s. Also, the fraction unbound in data set [2] (setting [6]) was found to be 0.014. The fraction unbound in data set [2] (setting [7]) was found to be 0.101. Moreover, the IC50 (commonly the concentration that gives 50% inhibition) in data set [3] lay within 0.01 to 100 nM.
Consider `CN1CCN(c2cccc3nc([C@H]4CCC[C@@H](c5ncccc5Cl)N4)[nH]c23)CC1` (racemic) [I-122], for which the Kp (as a rule, tissue or fluid exposure divided by exposure in the circulation) in data set [1] (male, CD1, mouse, brain/plasma, iv, 3 mg/kg) came to 1.23. The same compound had a clearance in data set [1] (male, mouse, 3 mg/kg IV, 0-1 h) of 119 mL/min/kg. Also, the half-life in data set [1] (male, mouse, 3 mg/kg IV, 0-1 h) was 24.1 min. Moreover, the results for the AUC(0-t) in data set [1] (setting [4]) and in data set [1] (setting [5]) were 418 ng·h/mL and 341 ng·h/mL, respectively. Further, in data set [1] (male, CD1, unbound brain/unbound plasma, mouse, 3 mg/kg IV, 0-1 h, read-out: Kp, uu), the Kp uu came to 0.33. In addition, the fraction unbound in data set [1] (mouse, fraction unbound to brain proteins, read-out: Fu (b) %) worked out at 0.035; in data set [1] (mouse, fraction unbound to plasma proteins, read-out: Fu (p) %), 0.127; in data set [2] (setting [6]), 0.041; in data set [2] (setting [7]), 0.251. In the data set “in vitro”, this compound came in with a Papp A→B at 90 min, 10 μM of 10 to 30 ×10⁻⁶ cm/s. Further, the apparent permeability from basolateral to apical (Papp B→A) at 90 min, 10 μM in the data set “in vitro” was 10 to 30 ×10⁻⁶ cm/s. Moreover, in the data set “in vitro”, the efflux ratio – broadly, the permeability from basolateral to apical divided by that in the opposite direction, in the common usage – at 90 min, 10 μM fell in the range of 0.1 to 10. For the same compound, the IC50 in data set [3] lay in the range of 0.01 to 100 nM.
